Experimental data from ChEMBL document CHEMBL5653631, “A Potent and Selective ULK1 Inhibitor Suppresses Autophagy and Sensitizes Cancer Cells to Nutrient Stress” (iScience, 2018).
One block for each compound: values may come before it.

Columns and labels:
[1] = molecular target: T1, Ephrin type-B receptor 2 (Homo sapiens) (UniProt P29323); test: Inhibition of human recombinant EphB2 at 500 nM in presence of ATP by radiometric assay relative to control
T1 sequence (whole entry): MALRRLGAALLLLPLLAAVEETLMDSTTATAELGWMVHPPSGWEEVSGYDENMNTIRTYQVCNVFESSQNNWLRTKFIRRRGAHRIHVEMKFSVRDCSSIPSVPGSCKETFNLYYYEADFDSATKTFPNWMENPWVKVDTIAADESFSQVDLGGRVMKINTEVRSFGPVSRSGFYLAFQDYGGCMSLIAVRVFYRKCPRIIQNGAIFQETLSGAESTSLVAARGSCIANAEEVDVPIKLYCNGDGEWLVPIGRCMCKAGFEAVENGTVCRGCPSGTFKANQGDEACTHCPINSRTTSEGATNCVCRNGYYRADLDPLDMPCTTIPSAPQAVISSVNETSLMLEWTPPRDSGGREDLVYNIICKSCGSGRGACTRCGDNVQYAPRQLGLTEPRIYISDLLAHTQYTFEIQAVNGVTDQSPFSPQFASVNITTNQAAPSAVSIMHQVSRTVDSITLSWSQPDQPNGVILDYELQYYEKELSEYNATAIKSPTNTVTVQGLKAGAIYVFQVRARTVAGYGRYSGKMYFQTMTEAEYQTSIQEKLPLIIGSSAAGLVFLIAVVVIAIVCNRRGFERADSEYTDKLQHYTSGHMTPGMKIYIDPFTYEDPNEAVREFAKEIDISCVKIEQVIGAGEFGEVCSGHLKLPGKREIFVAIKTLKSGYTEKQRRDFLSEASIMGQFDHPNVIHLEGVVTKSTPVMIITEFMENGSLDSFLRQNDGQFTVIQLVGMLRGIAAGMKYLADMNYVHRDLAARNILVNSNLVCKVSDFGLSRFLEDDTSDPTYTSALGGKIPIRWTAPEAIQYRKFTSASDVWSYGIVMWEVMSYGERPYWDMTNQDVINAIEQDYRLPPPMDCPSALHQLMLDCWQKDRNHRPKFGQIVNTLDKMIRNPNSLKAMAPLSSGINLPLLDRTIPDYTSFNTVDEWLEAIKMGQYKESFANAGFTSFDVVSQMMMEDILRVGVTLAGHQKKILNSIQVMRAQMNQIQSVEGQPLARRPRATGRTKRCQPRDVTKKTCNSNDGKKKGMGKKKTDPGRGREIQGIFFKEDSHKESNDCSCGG

[2] = molecular target: MAP/microtubule affinity-regulating kinase 3 (Homo sapiens) (UniProt P27448); test: Inhibition of human recombinant MARK3 at 500 nM related to control ULK1
Sequence of MAP/microtubule affinity-regulating kinase 3 (Homo sapiens) (P27448 whole entry, looked up): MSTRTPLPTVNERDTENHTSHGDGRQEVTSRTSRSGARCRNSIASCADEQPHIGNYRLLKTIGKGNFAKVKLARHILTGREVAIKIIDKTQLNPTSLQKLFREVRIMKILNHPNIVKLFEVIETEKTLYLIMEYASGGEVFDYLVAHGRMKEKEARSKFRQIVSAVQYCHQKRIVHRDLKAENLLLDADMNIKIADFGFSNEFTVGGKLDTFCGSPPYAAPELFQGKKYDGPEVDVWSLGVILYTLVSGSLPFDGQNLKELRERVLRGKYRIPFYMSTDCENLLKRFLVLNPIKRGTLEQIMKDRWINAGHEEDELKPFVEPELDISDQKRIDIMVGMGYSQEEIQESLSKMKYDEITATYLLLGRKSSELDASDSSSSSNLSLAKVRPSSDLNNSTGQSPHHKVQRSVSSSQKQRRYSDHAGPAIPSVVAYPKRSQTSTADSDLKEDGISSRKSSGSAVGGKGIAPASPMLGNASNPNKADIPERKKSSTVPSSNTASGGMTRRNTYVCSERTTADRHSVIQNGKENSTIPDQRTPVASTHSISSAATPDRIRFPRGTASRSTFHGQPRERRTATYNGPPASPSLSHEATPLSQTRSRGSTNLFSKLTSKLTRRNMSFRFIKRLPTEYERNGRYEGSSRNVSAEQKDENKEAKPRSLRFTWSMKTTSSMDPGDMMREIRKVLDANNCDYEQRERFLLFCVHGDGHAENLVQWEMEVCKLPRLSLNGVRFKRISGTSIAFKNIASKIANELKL

[3] = molecular target: Serine/threonine-protein kinase PAK 1 (Homo sapiens) (UniProt Q13153); test: Inhibition of human recombinant PAK1 at 500 nM in presence of ATP by radiometric assay relative to control
[4] = molecular target: Calcium/calmodulin-dependent protein kinase type 1G (Homo sapiens) (UniProt Q96NX5); test: Inhibition of human recombinant CaMK1g at 15 nM in presence of ATP by radiometric assay relative to control
[5] = molecular target: Serine/threonine-protein kinase 32B (Homo sapiens) (UniProt Q9NY57); test: Inhibition of human recombinant YANK2 at 15 nM in presence of ATP by radiometric assay relative to control
Sequence of Serine/threonine-protein kinase 32B (Homo sapiens) (Q9NY57 whole entry): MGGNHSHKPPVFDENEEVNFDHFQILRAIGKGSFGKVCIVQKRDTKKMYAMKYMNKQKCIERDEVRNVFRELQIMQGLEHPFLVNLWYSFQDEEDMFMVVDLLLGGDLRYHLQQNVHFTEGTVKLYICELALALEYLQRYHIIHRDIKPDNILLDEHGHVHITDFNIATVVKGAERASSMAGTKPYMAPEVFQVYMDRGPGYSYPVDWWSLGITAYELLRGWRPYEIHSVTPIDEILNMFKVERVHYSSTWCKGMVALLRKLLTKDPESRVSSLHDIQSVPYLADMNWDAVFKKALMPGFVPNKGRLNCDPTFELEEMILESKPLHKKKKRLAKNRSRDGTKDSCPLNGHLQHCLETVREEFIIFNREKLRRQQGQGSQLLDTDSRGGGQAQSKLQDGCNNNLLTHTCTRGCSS

[6] = molecular target: Wee1-like protein kinase (Homo sapiens) (UniProt P30291); test: Inhibition of human recombinant Wee1 at 15 nM in presence of ATP by radiometric assay relative to control
Sequence of Wee1-like protein kinase (Homo sapiens) (P30291 whole entry, looked up): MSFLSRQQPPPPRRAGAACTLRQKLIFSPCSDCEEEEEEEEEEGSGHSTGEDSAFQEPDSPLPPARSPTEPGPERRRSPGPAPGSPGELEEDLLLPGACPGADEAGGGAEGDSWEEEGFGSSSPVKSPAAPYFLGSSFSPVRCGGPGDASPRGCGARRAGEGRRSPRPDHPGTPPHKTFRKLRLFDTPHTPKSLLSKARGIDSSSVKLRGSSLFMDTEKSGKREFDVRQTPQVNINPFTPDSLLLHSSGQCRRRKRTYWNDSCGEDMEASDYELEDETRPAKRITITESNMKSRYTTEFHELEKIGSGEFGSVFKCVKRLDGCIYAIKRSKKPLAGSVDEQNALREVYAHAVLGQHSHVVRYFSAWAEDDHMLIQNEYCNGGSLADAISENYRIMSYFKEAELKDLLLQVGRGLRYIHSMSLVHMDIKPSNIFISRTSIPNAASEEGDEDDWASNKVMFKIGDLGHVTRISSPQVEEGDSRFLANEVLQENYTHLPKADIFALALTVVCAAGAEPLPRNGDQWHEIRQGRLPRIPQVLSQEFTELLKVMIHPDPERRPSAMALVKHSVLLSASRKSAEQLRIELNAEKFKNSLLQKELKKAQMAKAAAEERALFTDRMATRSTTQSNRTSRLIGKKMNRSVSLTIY

[7] = molecular target: Serine/threonine-protein kinase MRCK alpha (Homo sapiens) (UniProt Q5VT25); test: Inhibition of human recombinant MRCKa at 15 nM related to control ULK1
Sequence of Serine/threonine-protein kinase MRCK alpha (Homo sapiens) (Q5VT25 whole entry): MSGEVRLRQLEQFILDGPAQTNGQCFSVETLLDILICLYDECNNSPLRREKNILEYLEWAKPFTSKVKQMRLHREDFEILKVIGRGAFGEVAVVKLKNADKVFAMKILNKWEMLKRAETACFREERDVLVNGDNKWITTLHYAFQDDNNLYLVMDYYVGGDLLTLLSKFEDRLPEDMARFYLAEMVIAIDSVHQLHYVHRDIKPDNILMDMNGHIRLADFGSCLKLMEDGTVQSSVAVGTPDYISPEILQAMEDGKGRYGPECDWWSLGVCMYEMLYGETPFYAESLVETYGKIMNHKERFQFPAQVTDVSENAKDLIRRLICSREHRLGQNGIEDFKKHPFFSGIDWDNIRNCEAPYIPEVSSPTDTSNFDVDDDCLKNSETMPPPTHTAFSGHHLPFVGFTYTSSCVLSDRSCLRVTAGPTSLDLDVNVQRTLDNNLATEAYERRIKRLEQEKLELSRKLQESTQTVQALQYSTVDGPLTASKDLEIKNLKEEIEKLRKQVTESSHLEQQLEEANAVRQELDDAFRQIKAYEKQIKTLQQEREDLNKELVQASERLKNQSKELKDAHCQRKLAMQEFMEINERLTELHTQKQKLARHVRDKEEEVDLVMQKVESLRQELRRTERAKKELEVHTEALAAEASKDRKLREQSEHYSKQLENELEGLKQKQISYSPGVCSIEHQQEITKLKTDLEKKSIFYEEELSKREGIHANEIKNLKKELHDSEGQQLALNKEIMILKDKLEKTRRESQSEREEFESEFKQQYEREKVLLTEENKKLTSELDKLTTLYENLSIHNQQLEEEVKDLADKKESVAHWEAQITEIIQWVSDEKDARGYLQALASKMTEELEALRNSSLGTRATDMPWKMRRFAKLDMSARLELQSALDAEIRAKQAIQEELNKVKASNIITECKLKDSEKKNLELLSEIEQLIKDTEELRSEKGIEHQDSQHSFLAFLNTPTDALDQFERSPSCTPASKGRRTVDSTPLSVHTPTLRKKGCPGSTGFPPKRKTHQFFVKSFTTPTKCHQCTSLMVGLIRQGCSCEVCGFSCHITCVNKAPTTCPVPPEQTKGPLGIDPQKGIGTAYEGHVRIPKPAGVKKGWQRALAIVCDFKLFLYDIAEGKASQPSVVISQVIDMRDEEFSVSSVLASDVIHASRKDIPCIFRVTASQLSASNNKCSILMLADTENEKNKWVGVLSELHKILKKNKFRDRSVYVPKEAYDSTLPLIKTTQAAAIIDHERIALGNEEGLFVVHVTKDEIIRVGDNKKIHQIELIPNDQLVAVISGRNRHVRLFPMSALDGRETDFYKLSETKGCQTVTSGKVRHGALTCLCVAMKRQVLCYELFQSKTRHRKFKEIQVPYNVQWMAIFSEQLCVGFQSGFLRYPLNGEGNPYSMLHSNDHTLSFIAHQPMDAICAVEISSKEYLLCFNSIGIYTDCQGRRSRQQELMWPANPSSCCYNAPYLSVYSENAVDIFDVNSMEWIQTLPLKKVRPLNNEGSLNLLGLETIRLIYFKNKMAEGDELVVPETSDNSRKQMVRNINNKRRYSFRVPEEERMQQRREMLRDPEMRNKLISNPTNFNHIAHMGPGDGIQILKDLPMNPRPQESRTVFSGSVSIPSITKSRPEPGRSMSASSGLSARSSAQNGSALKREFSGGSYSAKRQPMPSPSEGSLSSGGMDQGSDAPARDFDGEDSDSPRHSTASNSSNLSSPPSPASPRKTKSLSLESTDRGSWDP

[8] = molecular target: T2, Myosin-IIIb (Homo sapiens) (UniProt Q8WXR4); test: Inhibition of human recombinant MYO3B at 40 nM related to control ULK1
T2 sequence (whole entry): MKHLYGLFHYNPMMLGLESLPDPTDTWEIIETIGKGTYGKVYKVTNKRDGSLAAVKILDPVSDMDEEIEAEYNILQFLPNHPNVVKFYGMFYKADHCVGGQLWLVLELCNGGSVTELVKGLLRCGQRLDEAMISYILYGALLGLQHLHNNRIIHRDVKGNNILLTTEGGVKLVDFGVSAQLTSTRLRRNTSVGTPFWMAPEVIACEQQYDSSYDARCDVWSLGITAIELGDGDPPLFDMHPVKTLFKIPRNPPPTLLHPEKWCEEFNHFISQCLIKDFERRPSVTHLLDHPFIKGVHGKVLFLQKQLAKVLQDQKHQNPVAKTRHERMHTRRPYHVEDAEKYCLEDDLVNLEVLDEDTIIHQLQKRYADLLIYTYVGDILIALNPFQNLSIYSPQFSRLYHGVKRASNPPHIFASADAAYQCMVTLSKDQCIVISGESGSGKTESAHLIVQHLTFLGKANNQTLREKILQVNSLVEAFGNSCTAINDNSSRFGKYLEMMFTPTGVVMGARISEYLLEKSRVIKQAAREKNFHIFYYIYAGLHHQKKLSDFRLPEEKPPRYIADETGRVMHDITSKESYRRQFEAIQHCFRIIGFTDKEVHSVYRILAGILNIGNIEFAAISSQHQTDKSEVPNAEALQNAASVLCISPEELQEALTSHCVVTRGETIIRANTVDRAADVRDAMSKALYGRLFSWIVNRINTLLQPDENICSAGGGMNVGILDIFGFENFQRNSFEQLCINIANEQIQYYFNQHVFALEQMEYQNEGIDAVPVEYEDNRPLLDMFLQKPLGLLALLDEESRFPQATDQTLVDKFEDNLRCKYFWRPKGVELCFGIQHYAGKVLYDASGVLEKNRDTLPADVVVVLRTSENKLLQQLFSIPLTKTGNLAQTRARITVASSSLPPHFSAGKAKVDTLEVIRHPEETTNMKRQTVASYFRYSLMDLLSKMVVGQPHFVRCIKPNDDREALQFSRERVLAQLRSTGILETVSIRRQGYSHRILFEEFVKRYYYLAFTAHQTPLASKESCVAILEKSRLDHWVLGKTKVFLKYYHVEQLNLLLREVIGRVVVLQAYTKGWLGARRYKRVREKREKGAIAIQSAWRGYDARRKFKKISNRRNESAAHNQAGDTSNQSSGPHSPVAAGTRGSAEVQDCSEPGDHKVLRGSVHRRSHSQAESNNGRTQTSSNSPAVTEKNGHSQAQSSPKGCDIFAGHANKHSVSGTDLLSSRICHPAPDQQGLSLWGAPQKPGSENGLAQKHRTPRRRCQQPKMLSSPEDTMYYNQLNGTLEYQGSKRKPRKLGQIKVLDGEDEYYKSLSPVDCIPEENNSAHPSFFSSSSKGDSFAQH

[9] = molecular target: Ribosomal protein S6 kinase alpha-4 (Homo sapiens) (UniProt O75676); test: Inhibition of human recombinant MSK2 at 40 nM in presence of ATP by radiometric assay relative to control
Sequence of Ribosomal protein S6 kinase alpha-4 (Homo sapiens) (O75676 whole entry, looked up): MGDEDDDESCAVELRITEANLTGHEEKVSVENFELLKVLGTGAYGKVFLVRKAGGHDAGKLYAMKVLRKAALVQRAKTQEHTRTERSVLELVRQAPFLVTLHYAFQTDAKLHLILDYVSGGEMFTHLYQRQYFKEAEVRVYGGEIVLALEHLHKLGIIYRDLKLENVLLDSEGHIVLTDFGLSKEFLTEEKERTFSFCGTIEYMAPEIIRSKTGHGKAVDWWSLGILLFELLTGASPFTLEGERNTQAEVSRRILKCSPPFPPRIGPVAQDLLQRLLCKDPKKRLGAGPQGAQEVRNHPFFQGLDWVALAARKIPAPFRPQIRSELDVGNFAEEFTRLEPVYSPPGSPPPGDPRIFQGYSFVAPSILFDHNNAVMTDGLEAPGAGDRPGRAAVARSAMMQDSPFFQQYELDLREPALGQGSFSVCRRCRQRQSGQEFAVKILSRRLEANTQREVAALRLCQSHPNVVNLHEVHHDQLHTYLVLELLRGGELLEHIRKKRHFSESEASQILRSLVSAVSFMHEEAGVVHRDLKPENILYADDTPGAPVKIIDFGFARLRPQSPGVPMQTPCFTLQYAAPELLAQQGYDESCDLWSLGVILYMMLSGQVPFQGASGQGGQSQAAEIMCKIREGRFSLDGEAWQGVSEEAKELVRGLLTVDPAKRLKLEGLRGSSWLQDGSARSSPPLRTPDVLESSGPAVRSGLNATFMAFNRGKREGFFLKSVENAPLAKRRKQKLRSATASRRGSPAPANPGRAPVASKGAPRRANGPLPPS

[10] = molecular target: Serine/threonine-protein kinase 32A (Homo sapiens) (UniProt Q8WU08); test: Inhibition of human recombinant YANK1 at 40 nM related to control ULK1
Sequence of Serine/threonine-protein kinase 32A (Homo sapiens) (Q8WU08 whole entry): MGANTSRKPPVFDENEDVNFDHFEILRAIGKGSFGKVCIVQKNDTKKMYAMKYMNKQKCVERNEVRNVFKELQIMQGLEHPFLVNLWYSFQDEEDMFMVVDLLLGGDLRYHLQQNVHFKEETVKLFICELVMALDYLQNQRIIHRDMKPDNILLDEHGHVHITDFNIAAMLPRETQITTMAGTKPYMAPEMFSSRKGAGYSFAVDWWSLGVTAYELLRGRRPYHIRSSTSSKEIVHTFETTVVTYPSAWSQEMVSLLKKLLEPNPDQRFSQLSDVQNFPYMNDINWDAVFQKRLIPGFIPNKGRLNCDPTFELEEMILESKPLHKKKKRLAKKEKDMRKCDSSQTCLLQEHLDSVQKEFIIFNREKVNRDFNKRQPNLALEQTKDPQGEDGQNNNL

- inhibition [1]: 15%
- fold change (FC) [2]: 0.61
- inhibition [3]: 20%
Structure (SMILES): CNC(=O)c1ccccc1Oc1nc(Nc2cc(OC)c(OC)c(OC)c2)ncc1Br

- inhibition [4]: 0%
- inhibition [5]: 0%
- inhibition [6]: 15%
- fold change (FC) [7]: 0.13
Structure (SMILES): CC(C)[C@H](NC(=O)c1cc(-c2cnn3cc(-c4ccc(OCCN5CCCCC5)cc4)cnc23)cs1)C(F)(F)F

- fold change (FC) [8]: 0
- inhibition [9]: 0%
- fold change (FC) [10]: 0.05
Structure (SMILES): O=C(N[C@@H](C1CC1)C(F)(F)F)c1cc(-c2cnn3cc(-c4ccc(F)cc4)cnc23)cs1
